Laboratory results taken from patent US20080021069A1, “Receptor Function Regulating Agent” (TAKEDA PHARMACEUTICAL COMPANY LIMITED, priority 2004, published 2008).

Columns and labels:
human GPR40 = molecular target: T1, human GPR40 (Homo sapiens, UniProt O14842); test: GPR40 antagonist activity with changes in intracellular calcium concentration as index (NFAT-luciferase reporter, CHO(dhfr-)/GPR40-NFAT-Luc cells); assay type: cell-based; conditions: CHO cell line expressing human GPR40, NFAT-Luc reporter; GPR40 agonist 3-(4-((6-benzyloxy-2',6'-dimethyl-biphenyl-3-yl)methoxy)phenyl)propanoic acid 40 nM; 4 hr culture; 0.1% fatty acid-free BSA
T1 construct: expressed in transfected cells; host or cells: CHO(dhfr-) cells: line CHO-hGPR40 No. 104 of WO2004/041266, with a stably expressed NFAT-TA-Luc reporter (CHO(dhfr-)/GPR40-NFAT-Luc)
T1 sequence (O14842 whole entry): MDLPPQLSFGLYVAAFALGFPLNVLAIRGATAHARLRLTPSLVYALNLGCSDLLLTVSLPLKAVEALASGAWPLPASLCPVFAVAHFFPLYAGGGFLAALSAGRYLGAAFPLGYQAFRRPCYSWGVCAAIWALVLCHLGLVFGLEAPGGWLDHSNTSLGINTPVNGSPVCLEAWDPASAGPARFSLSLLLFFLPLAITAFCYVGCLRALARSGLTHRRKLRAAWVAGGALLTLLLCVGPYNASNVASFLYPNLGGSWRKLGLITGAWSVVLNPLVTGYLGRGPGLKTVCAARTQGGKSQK
Excerpt: Evaluation of GPR40 antagonist activity with changes in intracellular calcium concentration as index
An assay system of GPR40 antagonist was established as follows. In this assay system, as the GPR40 agonist, 3-(4-((6-benzyloxy-2′,6′-dimethyl-biphenyl-3-yl)methoxy)phenyl)propanoic acid (compound described in Example 340 of WO2004/041266) was used.
First, NFAT-TA was cut out from pNFAT-TA-Luc (manufactured by BD Bioscience Clontech) with HindIII and NheI, the recovered fragment was inserted into pGL3 basic neo digested with HindIII and NheI to give plasmid:pGL3 basic neo NFAT-TA-Luc.
This plasmid was used for “the CHO cell line (CHO-hGPR40 No. 104), which was made to express human GPR40” described in WO2004/041266, and a cell line CHO(dhfr-)/GPR40-NFAT-Luc, wherein a reporter gene was stably expressed by a method known per se, was prepared.
This cell line was diluted with a medium (nucleic acid-free MEM (Minimum Essential Medium)—α medium added with dialyzed FBS (Fetal Bovine Serum) to a final concentration of 10%) in such a manner that 2×10^4 cells/100 μl would be contained, dispensed to a white walled 96 well plate (manufactured by Coster) by 100 μl per well, and cultured overnight in a CO2 incubator. Then the medium was removed by suction from the 96 well plate, and a 10 mM test compound-dimethyl sulfoxide (manufactured by Wako Pure Chemical Industries, Ltd.) solution diluted with a medium (nucleic acid-free MEM—α medium added with bovine serum albumin (BSA) free of fatty acid to a final concentration of 0.1%) to each concentration was added by 50 μl per well. Further, 3-(4-((6-benzyloxy-2′,6′-dimethyl-biphenyl-3-yl)methoxy)phenyl)propanoic acid diluted with a medium (nucleic acid-free MEM-α (medium added with BSA free of fatty acid to a final concentration of 0.1%) to a final concentration of 40 nM was added to the 96 well plate by 50 μl per well.
After culture in a CO2 incubator for 4 hr, the culture medium was removed from the 96 well plate. Then, PicaGene (manufactured by TOYO INK MFG. CO., LTD.) was added to the 96 well plate, and the luciferase activity was determined using PerkinElmer ARVO (trade name, manufactured by PerkinElmer), based on which changes in the intracellular calcium concentration were evaluated. After assay of luciferase activity, nonlinear regression analysis was performed using PRISM 3 (trade name, manufactured by GraphPad) and IC50 value was calculated with changes in the intracellular calcium concentration as an index.
In the same manner as in Experimental Example 1, the IC50 value of the compound of the present invention was calculated.

Row | IC50 (human GPR40) | melting point | Structure (SMILES)
1 | < 100 nM | 106 to 107 °C | CCCOc1ccc(-n2c(NCc3ccc(Br)cc3)nc3cc(Cl)c(Cl)cc32)cc1 [Example 97, N-(4-Bromobenzyl)-5,6-dichloro-1-(4-propoxyphenyl)-1H-benzimidazol-2-amine]
2 | < 100 nM | 208 to 209 °C | COc1ccc(-n2c(NCc3ccc(C(C)(C)C)cc3)nc3ccc(Cl)cc32)cc1 [Example 72, N-(4-tert-Butylbenzyl)-6-chloro-1-(4-methoxyphenyl)-1H-benzimidazol-2-amine]
3 | < 100 nM | 109 to 110 °C | CCOc1ccc(-n2c(NCc3ccc(Cl)cc3)nc3cc(Cl)ccc32)cc1 [Example 82, 5-Chloro-N-(4-chlorobenzyl)-1-(4-ethoxyphenyl)-1H-benzimidazol-2-amine]
4 | < 100 nM | 190 to 191 °C | CCCOc1ccc(-n2c(NCc3ccc(C(C)(C)C)cc3)nc3cc(Cl)ccc32)cc1 [Example 83, N-(4-tert-Butylbenzyl)-5-chloro-1-(4-propoxyphenyl)-1H-benzimidazol-2-amine]
5 | < 100 nM | 130 to 131 °C | CCCOc1ccc(-n2c(NCc3ccc(Cl)cc3)nc3ccc(Cl)cc32)cc1 [Example 74, 6-Chloro-N-(4-chlorobenzyl)-1-(4-propoxyphenyl)-1H-benzimidazol-2-amine]
6 | < 100 nM | 104 to 112 °C | CCCOc1ccc(-n2c(SCc3ccc(Cl)cc3)nc3cc(Cl)ccc32)cc1.Cl [Example 121, 5-Chloro-2-[(4-chlorobenzyl)thio]-1-(4-propoxyphenyl)-1H-benzimidazole hydrochloride]
7 | < 100 nM | 102 to 103 °C | CCCOc1ccc(-n2c(SCc3ccc(Cl)cc3)nc3ccc(Cl)cc32)cc1 [Example 12, 6-Chloro-2-[(4-chlorobenzyl)thio]-1-(4-propoxyphenyl)-1H-benzimidazole]
8 | < 100 nM | 190 to 191 °C | CC(C)(C)c1ccc(CNc2nc3cc(Cl)ccc3n2-c2ccc(OCC(F)(F)F)cc2)cc1 [Example 89, N-(4-tert-Butylbenzyl)-5-chloro-1-[4-(2,2,2-trifluoroethoxy)phenyl]-1H-benzimidazol-2-amine]
9 | < 100 nM | 109 to 110 °C | COCOc1ccc(-n2c(SCc3ccc(Cl)cc3)nc3ccc(Cl)cc32)cc1 [Example 7, 6-Chloro-2-[(4-chlorobenzyl)thio]-1-[4-(methoxymethoxy)phenyl]-1H-benzimidazole]
10 | < 100 nM | 141 to 142 °C | CCOc1ccc(-n2c(NCc3ccc(Cl)cc3)nc3cc(Cl)c(Cl)cc32)cc1 [Example 94, 5,6-Dichloro-N-(4-chlorobenzyl)-1-(4-ethoxyphenyl)-1H-benzimidazol-2-amine]
11 | < 100 nM | 166 to 167 °C | CCCOc1ccc(-n2c(NCc3ccc(Cl)cc3)nc3cc(Cl)c(Cl)cc32)cc1 [Example 98, 5,6-Dichloro-N-(4-chlorobenzyl)-1-(4-propoxyphenyl)-1H-benzimidazol-2-amine]

Further lines, the molecule ahead of its results:

Row | Structure (SMILES) | IC50 (human GPR40) | melting point
12 | CC(C)(C)c1ccc(CNc2nc3cc(Cl)c(Cl)cc3n2-c2ccc(OCC(F)(F)F)cc2)cc1 [Example 102, N-(4-tert-Butylbenzyl)-5,6-dichloro-1-[4-(2,2,2-trifluoroethoxy)phenyl]-1H-benzimidazol-2-amine] | < 100 nM | 136 to 137 °C
13 | CCCCOc1ccc(-n2c(NCc3ccc(Cl)cc3)nc3cc(Cl)c(Cl)cc32)cc1 [Example 101, 1-(4-Butoxyphenyl)-5,6-dichloro-N-(4-chlorobenzyl)-1H-benzimidazol-2-amine] | < 100 nM | 162 to 163 °C
14 | Clc1ccc(CSc2nc3ccc(Cl)cc3n2-c2ccc(C3OCCO3)cc2)cc1 [Example 132, 6-Chloro-2-[(4-chlorobenzyl)thio]-1-[4-(1,3-dioxolan-2-yl)phenyl]-1H-benzimidazole] | < 100 nM | 129 to 130 °C
15 | CCOc1ccc(-n2c(SCc3ccc(C(F)(F)F)cc3)nc3ccc(Cl)cc32)cc1 [Example 33, 6-Chloro-1-(4-ethoxyphenyl)-2-{[4-(trifluoromethyl)benzyl]thio}-1H-benzimidazole] | < 100 nM | 103 to 104 °C
16 | CCCOc1ccc(-n2c(NCc3ccc(C(C)(C)C)cc3)nc3cc(Cl)c(Cl)cc32)cc1 [Example 96, N-(4-tert-Butylbenzyl)-5,6-dichloro-1-(4-propoxyphenyl)-1H-benzimidazol-2-amine] | < 100 nM | 122 to 123 °C
17 | FC(F)(F)COc1ccc(-n2c(SCc3ccc(Cl)cc3)nc3cc(Cl)c(Cl)cc32)cc1 [Example 131, 5,6-Dichloro-2-[(4-chlorobenzyl)thio]-1-[4-(2,2,2-trifluoroethoxy)phenyl]-1H-benzimidazole] | < 100 nM | 90 to 92 °C
18 | CCCCOc1ccc(-n2c(NCc3ccc(C(C)(C)C)cc3)nc3cc(Cl)ccc32)cc1 [Example 86, 1-(4-Butoxyphenyl)-N-(4-tert-butylbenzyl)-5-chloro-1H-benzimidazol-2-amine] | < 100 nM | 158 to 159 °C
19 | CCCCOc1ccc(-n2c(SCc3ccc(Cl)cc3)nc3cc(Cl)ccc32)cc1.Cl [Example 122, 1-(4-Butoxyphenyl)-5-chloro-2-[(4-chlorobenzyl)thio]-1H-benzimidazole hydrochloride] | < 100 nM | 83 to 89 °C
20 | CCCCOc1ccc(-n2c(NCc3ccc(Cl)cc3)nc3ccc(Cl)cc32)cc1 [Example 76, 1-(4-Butoxyphenyl)-6-chloro-N-(4-chlorobenzyl)-1H-benzimidazol-2-amine] | < 100 nM | 122 to 123 °C
21 | CCOc1ccc(-n2c(SCc3ccc(Cl)cc3)nc3cc(Cl)c(Cl)cc32)cc1 [Example 111, 5,6-Dichloro-2-[(4-chlorobenzyl)thio]-1-(4-ethoxyphenyl)-1H-benzimidazole] | < 100 nM | 131 to 132 °C
22 | COCOc1ccc(-n2c(SCc3ccc(Br)cc3)nc3ccc(Cl)cc32)cc1 [Example 8, 2-[(4-Bromobenzyl)thio]-6-chloro-1-[4-(methoxymethoxy)phenyl]-1H-benzimidazole] | < 100 nM | 123 to 124 °C
23 | CC(C)(C)c1ccc(CNc2nc3cc(Cl)c(Cl)cc3n2-c2ccc(OC(F)(F)F)cc2)cc1 [Example 105, N-(4-tert-butylbenzyl)-5,6-dichloro-1-[4-(trifluoromethoxy)phenyl]-1H-benzimidazol-2-amine] | < 100 nM | 158 to 159 °C
24 | CCCOc1ccc(-n2c(SCc3ccc(Cl)cc3)nc3cc(Cl)c(Cl)cc32)cc1 [Example 112, 5,6-Dichloro-2-[(4-chlorobenzyl)thio]-1-(4-propoxyphenyl)-1H-benzimidazole] | < 100 nM | 119 to 120 °C
25 | CCCCOc1ccc(-n2c(SCc3ccc(Cl)cc3)nc3cc(Cl)c(Cl)cc32)cc1 [Example 113, 1-(4-Butoxyphenyl)-5,6-dichloro-2-[(4-chlorobenzyl)thio]-1H-benzimidazole] | < 100 nM | 99 to 100 °C
26 | CCOc1ccc(-n2c(SCc3ccc(C(C)(C)C)cc3)nc3ccc(Cl)cc32)cc1 [Example 38, 2-[(4-tert-butylbenzyl)thio]-6-chloro-1-(4-ethoxyphenyl)-1H-benzimidazole] | < 100 nM | 142 to 143 °C
27 | CC(C)(C)c1ccc(CNc2nc3ccc(Cl)cc3n2-c2ccc(OCC(F)(F)F)cc2)cc1 [Example 78, N-(4-tert-Butylbenzyl)-6-chloro-1-[4-(2,2,2-trifluoroethoxy)phenyl]-1H-benzimidazol-2-amine] | < 100 nM | 151 to 152 °C
